{"source": "patent US7714014B2", "about": "“Targeting GLI proteins in human cancer by small molecules” (The Regents of the University of California, priority 2005, dated 2010)", "key": {"H358 (NSCLC)": {"test_system": "H358 (NSCLC)", "assay": "Apoptosis analysis (Annexin V FITC, flow cytometry)", "type": "cell-based, human", "settings": "3 days", "method": "Apoptosis was analyzed by using an Annexin V FITC Apoptosis Detection Kit (Biosource, Camarillo, Calif.), according to the manufacturer's protocol. After treatment with different small molecule compounds at various concentrations for about 3 days, cells were harvested by trypsinization, stained and immediately analyzed by flow cytometry (FACScan; Decton Dickinson, Franklin Lake, N.J.). Early apoptotic cells with exposed phosphatidylserine but intact cell membranes will bind to Annexin V-FITC, but not propidium iodide (PI). Cells in necrotic or late apoptotic stages will be labeled with both Annexin V-FITC and PI. “% apoptotic cells” or “% apoptosis” refers to the combined early and late apoptotic cells.\nDose titration experiments of small molecule compound FN1-8 was performed using the NSCLC cell lines A549, H358, and H322. A 549, H358, and H322 cells were plated in 6-well plates and incubated with DM SO (control) or 7.5 μM, 10 μM, 15 μM, 20 μM, and 30 μM of FN1-8, respectively, for 3 days. A dramatic and dose-dependent cell killing in these cell lines was observed when FN1-8 was added at 15 μM or more. FN1-8 induced cell killing in A549 and […] at slightly lower concentrations than in H322 cells (data not shown). After 3 days, approximately 28% of the A549 cells and 58% of H358 underwent apoptosis when incubated with 20 μM FN1-8 (Table 3)."}, "[1]": {"target": "T1, GLI2-TAFbd peptide / TAFII31 protein (Homo sapiens, UniProt Q16594)", "T1 construct": "The full-length TAFII31 cDNA insert cloned into the (c-myc-tag)pCDNA3.1 expression vector was used as template; made in house; host or cells: cell-free: TNT quick coupled transcription/translation system (Promega)", "T1 sequence (Q16594 whole entry, the tested form may be a part)": "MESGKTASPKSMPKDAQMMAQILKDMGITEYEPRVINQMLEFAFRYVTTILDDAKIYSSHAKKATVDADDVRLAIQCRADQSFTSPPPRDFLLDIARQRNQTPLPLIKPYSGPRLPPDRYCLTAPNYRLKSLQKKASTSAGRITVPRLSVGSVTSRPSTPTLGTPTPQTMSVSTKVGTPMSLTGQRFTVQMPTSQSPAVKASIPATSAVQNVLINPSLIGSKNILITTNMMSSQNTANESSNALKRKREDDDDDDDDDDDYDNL", "assay": "Co-immunoprecipitation of GLI-TAFbd peptide and TAFII31", "type": "binding", "method": "(§1) The binding between GLI-TAF binding domain peptides (GLI-TAFbd) and TAFII31 protein was quantified by measuring the intensity of each band of an co-immunoprecipitation experiments with arbitrary unit. The binding after DMSO treatment was set to 100% for each GLI-TAFbd peptide. The binding was interfered by FN1-8 in dose-dependent manner: the binding for GLI1-TAFbd was 73.6% and 33.5%, for GLI2-TAFbd was 73.8% and 60%, for GLI3-TAFbd was 71.6% and 28.6%, after treatment with 20 μM and 50 μM FN1-8, respectively. Details are described in Example 35.\n(§2) Specifically for this experiment, biotinylated TAF binding domain of GLI proteins, GLI1, GLI2, and GLI3 (see below) were custom synthesized at Genemed Synthesis, Inc. The GLI-TAF binding domain (GLI-TAFbd) peptide sequences were as follows;\n(§3) TAFII31 proteins were prepared by using the TNT quick coupled transcription/translation systems (Promega) according to the manufacturer's protocol. The full-length TAFII31 cDNA insert cloned into the (c-myc-tag)pCDNA3.1 expression vector was used as template in this in vitro translation system. An empty (c-myc-tag)pCDNA3.1 expression vector was used as a control. The biotinylated GLI peptides (i.e., the TAF binding domains of three different GLI proteins) were incubated with the TAFII31 protein in the presence or absence of small molecule compound FN1-8 (at 20 μM and 50 μM). Then the biotinylated GLI-peptide-TAFII31 complexes were precipitated with streptavidine agarose followed by immunoblotting with an anti-c-myc antibody (A-14; Santa Cruz Biotech, Inc.; Cao et al., 2001, Science 293:115-120). […] As a control, there was no pull-down of TAFII31 by all three GLI peptides when the empty (c-myc-tag)pCDNA3.1 expression vector was used in in vitro translation system (FIG. 23)."}, "[2]": {"target": "T2, GLI3-TAFbd peptide / TAFII31 protein (Homo sapiens, UniProt Q16594)", "T2 construct": "The full-length TAFII31 cDNA insert cloned into the (c-myc-tag)pCDNA3.1 expression vector was used as template; made in house; host or cells: cell-free: TNT quick coupled transcription/translation system (Promega)", "T2 sequence (Q16594 whole entry)": "as the sequence (Q16594 whole entry, the tested form may be a part) above", "assay": "Co-immunoprecipitation of GLI-TAFbd peptide and TAFII31", "type": "binding", "method": "as §1, §2, §3"}, "[3]": {"target": "T3, GLI1-TAFbd peptide / TAFII31 protein (Homo sapiens, UniProt Q16594)", "T3 construct": "The full-length TAFII31 cDNA insert cloned into the (c-myc-tag)pCDNA3.1 expression vector was used as template; made in house; host or cells: cell-free: TNT quick coupled transcription/translation system (Promega)", "T3 sequence (Q16594 whole entry)": "as the sequence (Q16594 whole entry, the tested form may be a part) above", "assay": "Co-immunoprecipitation of GLI-TAFbd peptide and TAFII31", "type": "binding", "method": "as §1, §2, §3"}, "[4]": {"test_system": "GLI1, GLI2 and GLI/TAFII31 induced transcription in NSCLC A549 cells", "assay": "6xGLI BS-luciferase reporter assay (GLI / TAFII31 co-expression)", "type": "cell-based, human", "settings": "for reduction of transcription activity (6xGLI BS-luciferase): 20 μM, 16-20 hours", "method": "One day before transfection, cells (1×10^5) were plated in 12-well plates with growth medium without antibiotics. When cells reached 80-90% of confluence they were co-transfected using 0.5 μg of each promoter construct in pGL3Basic vector and 0.025 μg pRL-TK Vector (Promega; Madison, Wis.) containing Renilla Luciferase as an internal control for the transformation efficiency. Lipofectamine 2000™ (Invitrogen Life Technologies) was used to mediate transfection for about 6 hours. Then the medium was replaced with fresh medium containing various small molecule compounds at a concentration of 30 μM, and the resulting cells were cultured for an additional 18-24 hours and subjected to luciferase assay. Briefly, cells were lysed in a lysis buffer and Firefly and Renilla Luciferase activities in cells of each well, were measured using Dual-Luciferase Assay System (Promega) and an illuminometer. The measured luciferase activities were normalized to pRL-TK Vector activity and were given relative to the basal activity of empty pGL3-Basic Vector, which was set to unity. The data shown represent mean values (±S.D.). All measurements were performed in triplicate and repeated in at least three independent experiments. The human Wnt-2 promoter-luciferase construct, the human SOCS3 promoter-Luciferase construct and the human Gremlin promoter-luciferase construct were cloned and characterized in the laboratory of Dr. Jablons at the University of California, San Francisco (San Francisco, Calif.; He et al., Biochem Biophy Res Comm, 2003; and unpublished data). The 6GLI-TKO-luciferase construct (containing 6 repeats of consensus GLI DNA binding sequence) was kindly provided by Dr. Matthias Hebrok's laboratory at the University of California, San Francisco (San Francisco, Calif.).\nFurther, the specificity of the compounds of the present invention in inhibiting GLI activity and to determine whether these compounds block the interaction between GlLI and TAFII31 as described above, was examined. Specifically, in this analysis, an expression construct linking the 6 repeats of GLI-binding sites (6xGLI BS) to a luciferase reporter gene as a surrogate measurement of the GLI-dependent transcription was used to examine the 6xGLI BS-luciferase activity after treatment of NSCLC A549 cells with compound FN1-8. […] This finding again confirmed that both GLI1 and GLI2 specifically bound to the GLI-binding sites and were functionally active in transcription. […] After treatment of the A549 cells for 16-20 hours with 20 μM, FN1-8 both GLI alone and GLI/TAFII31 induced 6xGLI BS-luciferase transcription was reduced."}}, "data": [{"smiles": "O=C(NCCc1ccc(O)cc1)C1C(c2ccccc2)=NN(c2ccccc2)C1c1ccccc1", "note": "(stereo not drawn) [FN1-8, N-(2-(4-Hydroxyphenyl)ethyl)-1,3,5-triphenyl-4,5-dihydro-pyrazole-4-carboxyamide]", "values": [{"measurement": "% of apoptotic cells", "setting": "H358 (NSCLC); H358, 10 μM", "value": 15.2, "unit": "%"}, {"measurement": "% of apoptotic cells", "setting": "H358 (NSCLC); H358, 20 μM", "value": 58.1, "unit": "%"}, {"measurement": "binding of GLI2-TAFbd to TAFII31 (DMSO = 100%)", "setting": "[1]; 20 μM", "value": 73.8, "unit": "%"}, {"measurement": "binding of GLI2-TAFbd to TAFII31 (DMSO = 100%)", "setting": "[1]; 50 μM", "value": 60, "unit": "%"}, {"measurement": "binding of GLI3-TAFbd to TAFII31 (DMSO = 100%)", "setting": "[2]; 20 μM", "value": 71.6, "unit": "%"}, {"measurement": "binding of GLI3-TAFbd to TAFII31 (DMSO = 100%)", "setting": "[2]; 50 μM", "value": 28.6, "unit": "%"}, {"measurement": "binding of GLI1-TAFbd to TAFII31 (DMSO = 100%)", "setting": "[3]; 20 μM", "value": 73.6, "unit": "%"}, {"measurement": "binding of GLI1-TAFbd to TAFII31 (DMSO = 100%)", "setting": "[3]; 50 μM", "value": 33.5, "unit": "%"}, {"measurement": "GLI protein-TAF-induced transcriptional activation", "setting": "[4]; A549 (FIG. 16)", "value": "reduces GLI protein-TAF-induced transcriptional activation"}, {"measurement": "reduction of transcription activity (6xGLI BS-luciferase)", "setting": "[4]; GLI1 cotransfected with TAFII31", "value": "about 70%"}, {"measurement": "reduction of transcription activity (6xGLI BS-luciferase)", "setting": "[4]; GLI2 cotransfected with TAFII31", "value": "about 50%"}, {"measurement": "reduction of transcription activity (6xGLI BS-luciferase)", "setting": "[4]; GLI alone", "value": "approximately 30%"}]}]}
